Experimental data from patent publication US20100120716.

Settings: from C=CCCCCCC[C@@H](NC(=O)C1CC(OC(=O)N2Cc3ccccc3C2)CN1C(=O)N(C)CC=C)B1O[C@@H]2C[C@@H]3C[C@@H](C3(C)C)[C@]2(C)O1; rcm bond; Grubbs 2nd generation catalyst; toluene; 6.5 mM; 65.0 °C

CN1CC=CCCCCCC[C@H](B2O[C@@H]3C[C@@H]4C[C@@H](C4(C)C)[C@]3(C)O2)NC(=O)C2CC(OC(=O)N3Cc4ccccc4C3)CN2C1=O (stereo partly shown)
ring closure, yield of all isomers: 40%
